This note sets out measurements from US8507559B2, “Cyclohexenyl modulators of chemokine receptor activity” (Bristol-Myers Squibb Company, priority 2008, dated 2013).

This experiment addresses T1, CCR2 (Homo sapiens, UniProt P41597).
T1 construct: THP-1 human monocytic leukemic cell line, which expresses endogenous CCR2; endogenous in cells; host or cells: human peripheral blood mononuclear cells, human monocytes or THP-1 cells
T1 sequence (P41597 1-360 isoform P41597-2): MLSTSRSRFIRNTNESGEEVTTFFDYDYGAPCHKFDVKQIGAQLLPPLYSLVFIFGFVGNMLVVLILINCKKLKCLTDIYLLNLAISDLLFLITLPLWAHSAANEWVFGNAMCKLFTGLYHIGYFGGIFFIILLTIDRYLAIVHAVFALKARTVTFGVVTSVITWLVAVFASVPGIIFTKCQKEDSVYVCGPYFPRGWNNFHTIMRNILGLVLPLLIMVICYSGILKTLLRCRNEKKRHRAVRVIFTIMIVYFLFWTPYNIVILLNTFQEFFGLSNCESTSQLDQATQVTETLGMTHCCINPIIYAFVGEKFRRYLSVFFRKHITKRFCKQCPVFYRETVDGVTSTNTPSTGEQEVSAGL
Briefly: CCR2 binding: antagonism of 125I-MCP-1 binding (human PBMC / THP-1 whole cell). Particulars: n = 1 unless otherwise noted. The procedure:
Antagonism of MCP-1 Binding to Human PBMC
Millipore filter plates (#MABVN1250) are treated with 100 μl of binding buffer (0.5% bovine serum albumin, 20 mM HEPES buffer and 5 mM magnesium chloride in RPMI 1640 media) for thirty minutes at room temperature. To measure binding, 50 μl of binding buffer, with or without a known concentration compound, is combined with 50 μl of ^125-I labeled human MCP-1 (to give a final concentration of 150 pM radioligand) and 50 μl of binding buffer containing 5×10^5 cells. Cells used for such binding assays can include human peripheral blood mononuclear cells isolated by Ficoll-Hypaque gradient centrifugation, human monocytes (Weiner et al., J. Immunol. Methods. 1980, 36, 89), or the THP-1 cell line which expresses the endogenous receptor. The mixture of compound, cells and radioligand are incubated at room temperature for thirty minutes. Plates are placed onto a vacuum manifold, vacuum applied, and the plates washed three times with binding buffer containing 0.5M NaCl. The plastic skirt is removed from the plate, the plate allowed to air dry, the wells punched out and counted. The percent inhibition of binding is calculated using the total counts obtained in the absence of any competing compound and the background binding determined by addition of 100 nM MCP-1 in place of the test compound.
THP-1 Monocytic Cell Binding: Whole Cell-based Assay
The human CCR2 binding assay was also established with the THP-1 human monocytic leukemic cell line, which expresses endogenous CCR2, using ^125I-human MCP-1 as the tracer ligand. Radioligand competition binding assays were used for assessment of binding affinity of test compounds to the CCR2 receptor. For radioligand competition studies, 100 μl containing 2.5×10^5 THP-1 cells/well (in assay buffer containing 50 mM HEPES, pH7.4, 5 mM MgCl2, 1 mM CaCl2 and 0.5% BSA) were added to 96-well assay plates containing the test compounds in 3-fold serial dilution, with final concentrations ranging from 5 μM to 100 pM. Subsequently, 50 μl ^125I-MCP-1 radioligand at a final concentration of 0.2 nM in assay buffer were added to the reaction. After a 90 minute incubation period at room temperature, the binding reaction was terminated by harvesting on GF/B filter plates (PerkinElmer Cat. No. 6005177) followed by washing with ice-cold wash buffer (50 mM HEPES, pH 7.4, 0.1% BSA, 0.5 M NaCl) to remove unbound ligand. After washing, the plate was dried for 45 minutes at 60° C. followed by addition of 40 μl MicroScint 20 scintillation fluid, sealed and analyzed by the Packard TopCount reader. Non-specific binding was determined in the presence of 10 μM (a molar excess of 5000 fold) of an in-house CCR2 small molecule antagonist (CCR2 IC50=2 nM). Specific binding of ^125I-MCP-1 was calculated as the difference between total and non-specific binding. The competition data was plotted as a percentage inhibition of radioligand specific bound in the absence of test compound (percent of total signal). After correcting for non-specific binding, IC50 values were determined. The IC50 is defined as the concentration of test compound required to reduce ^125I-MCP-1 specific binding by 50% and was calculated using the four parameter logistic equation to fit the normalized data.

Usually Ki stands for the equilibrium dissociation constant of an inhibitor or competing ligand from its target. The low end stands for a stronger hold on the target, the high end for a looser hold on the target. `C[C@@H]1CC=C(C(=O)O)[C@@](C)(c2cccc(C(F)(F)F)c2)C1` (racemic) [Example 1-12, (4RS,6RS)-4,6-dimethyl-6-(3-(trifluoromethyl)phenyl)cyclohex-1-enecarboxylic acid] gave a Ki of 280 nM. Take `C[C@]1(c2ccc(Cl)c(Cl)c2)C[C@H](c2ccccc2)CC=C1C(=O)O` (racemic) [Example 1-06, (4RS,6RS)-6-(3,4-dichlorophenyl)-6-methyl-4-phenylcyclohex-1-enecarboxylic acid]: the Ki was 3900 nM. This Ki is about 14-fold higher than that of the compound before. On to `Cc1ccc([C@@]2(C)C[C@H](C)CC=C2C(=O)O)cc1Cl` (racemic) [Example 1-04, (4RS,6RS)-6-(3-chloro-4-methylphenyl)-4,6-dimethylcyclohex-1-enecarboxylic acid], for which the Ki is 69 nM. Compared with the last compound, the Ki is about 57-fold lower. Next, `CC1=C(C(=O)O)[C@@](O)(c2ccc(Cl)c(Cl)c2)C[C@H](C)C1` (racemic) [Example 5, (4RS,6SR)-6-(3,4-dichlorophenyl)-6-hydroxy-2,4,-dimethylcyclohex-1-enecarboxylic acid]: 1000 nM; `C[C@@H]1CC=C(C(=O)O)[C@@](C)(c2cccc(F)c2)C1` (racemic) [Example 1-23, (4RS,6RS)-6-(3-fluorophenyl)-4,6-dimethylcyclohex-1-enecarboxylic acid]: 3700 nM. In turn, `C[C@@H]1CC=C(C(=O)NS(C)(=O)=O)[C@@](C)(c2ccc(Cl)c(Cl)c2)C1` (racemic) [Example 3-01, (4RS,6RS)-6-(3,4-dichlorophenyl)-4,6-dimethyl-N-(methylsulfonyl)cyclohex-1-enecarboxamide] showed a Ki of 5400 nM. The Ki values of the last two compounds are within 1.5-fold of each other.

`Cc1cccc([C@@]2(C)C[C@H](C)CC=C2C(=O)O)c1` (racemic) [Example 1-18, (4RS,6RS)-4,6-dimethyl-6-m-tolylcyclohex-1-enecarboxylic acid] registered a Ki of 930 nM. For `C[C@H]1CCC(C(=O)O)[C@](C)(c2cccc(C(F)(F)F)c2)C1` (mixture of isomers) [Example 2, (2RS,4SR)-2,4-dimethyl-2-(3-(trifluoromethyl)phenyl)cyclohexanecarboxylic acid], the Ki is 5800 nM. Next, `C[C@@H]1CC=C(C(=O)O)[C@@](C)(c2ccc(Cl)cc2)C1` (racemic) [Example 1-21, (4RS,6RS)-6-(4-chlorophenyl)-4,6-dimethylcyclohex-1-enecarboxylic acid]: 900 nM. On to `CC1(c2cccc(Cl)c2)CCCC=C1C(=O)O` (racemic) [Example 1-09, 6-(3-chlorophenyl)-6-methylcyclohex-1-enecarboxylic acid], for which the Ki was determined as 3000 nM. Consider `C[C@@H]1CC=C(C(=O)O)[C@@](C)(c2ccc(Cl)c(Cl)c2)C1` (racemic) [Example 1-11, (4RS,6RS)-6-(3,4-dichlorophenyl)-4,6-dimethylcyclohex-1-enecarboxylic acid], for which the affinity, expressed as Ki, was 80 nM. For `C[C@@H]1CC=C(C(=O)O)[C@@](C)(c2cccc(-c3ccccc3)c2)C1` (racemic) [Example 1-03, (4RS,6RS)-6-(3-phenylphenyl)-4,6-dimethylcyclohex-1-enecarboxylic acid] the value was 250 nM. Next, `C[C@@H]1CC=C(C(=O)O)[C@@](C)(c2ccc(F)cc2)C1` (racemic) [Example 1-22, (4RS,6RS)-6-(4-fluorophenyl)-4,6-dimethylcyclohex-1-enecarboxylic acid]: 480 nM; `C[C@H]1CC=C(C(=O)O)[C@](C)(c2ccc(Cl)c(C(F)(F)F)c2)C1` [Example 4-01a, (4S,6S)-6-(4-chloro-3-(trifluoromethyl)-phenyl)-4,6-dimethylcyclohex-1-enecarboxylic acid]: 9 nM. In the case of `C[C@]1(c2ccc(Cl)c(C(F)(F)F)c2)C[C@H](CO)CC=C1C(=O)O` (racemic) [Example 7, (4RS,6RS)-6-(4-chloro-3-(trifluoromethyl)-phenyl)-4-(hydroxymethyl)-6-methylcyclohex-1-enecarboxylic acid], the affinity corresponds to a Ki of 210 nM.

As to `C[C@@H]1CC=C(C(=O)NS(=O)(=O)C(F)(F)F)[C@@](C)(c2ccc(Cl)c(Cl)c2)C1` (racemic) [Example 3-02, (4RS,6RS)-6-(3,4-dichlorophenyl)-4,6-dimethyl-N-(trifluoromethylsulfonyl)-cyclohex-1-enecarboxamide], the affinity corresponds to a Ki of 6600 nM. Against the preceding compound, the Ki is about 31-fold higher.
